According to ChEMBL document CHEMBL1158951, “Additional bioactive heptenes from Melodorum fruticosum” (1991):
≈ marks a conversion by molar mass, not a printed value.

How the values were obtained:
Type in all cases: functional
Settings in all cases: read-out: ED50 (the source's name)
MCF7 = assay: Cytotoxicity against human MCF7 cells
HT-29 = assay: Cytotoxicity against human HT-29 cells
Malme-3M = assay: Cytotoxicity against human MALME-3M cells
SK-MEL-5 = assay: Cytotoxicity against human SK-MEL-5 cells
A549 = assay: Cytotoxicity against human A549 cells

| SMILES | EC50 (MCF7) | EC50 (HT-29) | EC50 (Malme-3M) | EC50 (SK-MEL-5) | EC50 (A549) |
| --- | --- | --- | --- | --- | --- |
| COC(=O)/C=C/C(=O)CC(O)COC(=O)c1ccccc1 (stereo unspecified) | 1.92 µg/mL (≈ 6.57 µM) | 0.253 µg/mL (≈ 0.866 µM) | 1.1 µg/mL (≈ 3.76 µM) | 1.04 µg/mL (≈ 3.56 µM) | 3.28 µg/mL (≈ 11.2 µM) |
| CC(=O)OC(/C=C1/C=CC(=O)O1)COC(=O)c1ccccc1 (stereo unspecified) [ACETYLMELODORINOL] | 1.96 µg/mL (≈ 6.48 µM) | 2.38 µg/mL (≈ 7.87 µM) | 2.74 µg/mL (≈ 9.06 µM) | 4.21 µg/mL (≈ 13.9 µM) | 2.89 µg/mL (≈ 9.56 µM) |
| CCOC(=O)/C=C\C(=O)/C=C/COC(=O)c1ccccc1 [HOMOISOMELODIENONE] | 4.26 µg/mL (≈ 14.8 µM) | 36.3 µg/mL (≈ 126 µM) |  |  | 6.7 µg/mL (≈ 23.2 µM) |
| CCOC(=O)/C=C/C(=O)/C=C/COC(=O)c1ccccc1 [HOMOMELODIENONE] | 25.6 µg/mL (≈ 88.8 µM) | 37.9 µg/mL (≈ 131 µM) |  |  | 36.9 µg/mL (≈ 128 µM) |
| O=C1C=C/C(=C/C(O)COC(=O)c2ccccc2)O1 (stereo unspecified) [MELODORINOL] | 1.99 µg/mL (≈ 7.65 µM) | 2.87 µg/mL (≈ 11 µM) | 3.32 µg/mL (≈ 12.8 µM) | 3.75 µg/mL (≈ 14.4 µM) | 5.89 µg/mL (≈ 22.6 µM) |
